Data reported in patent US9617311B2, “Use of PEDF-derived polypeptides for promoting stem cells proliferation and wound healing” (Mackay Memorial Hospital, priority 2011, dated 2017).

The sequences below were run on basal cells of the hyper-proliferative epithelium (assay: Cell replication at basal layer of HE tissue at day 4 post skin wounding, BrdU immunohistochemistry). Settings: day 4 of skin ointment treatment; BrdU i.p. 3 hours before euthanasia; control wound 30.8±8.1%.
Format: in vivo, C57L/B6 mice
From the text: FIGS. 9A and 9B illustrate histological analysis of cell replication at day 4 post-skin wounding. FIG. 9A provides photographs in which specimens were immunehistologically stained with BrdU to observe DNA replication (deep brown color) and counterstained with hematoxylin to observe nuclei. […] (Original magnification, ×200). FIG. 9B is a histogram illustrating numbers of BrdU-positive cells at basal layer of HE tissue. A labeling index (%) was computed as the number of labeled cells divided by the total number of cells at basal layer of HE tissue. *P<0.05 versus control wound.
2×10^5 limbal cells (the 1st passage) were seeded at a slide coated with FNC COATING MIX® solution (Athena Enzyme Systems, Baltimore, Md.) and incubated with a culture medium for one day. BrdU (final, 10 μM) was added to the culture for 2 hours. After being fixed with 4% paraformaldehyde, cells were exposed to cold methanol for 2 minutes, and then treated with 1 N HCl at RT for 1 hour before performing immunofluorescence. For animal study, BrdU was reconstituted in DMSO as stock (80 mM). 10 μl of BrdU mixed with 90 μl of PBS was intraperitoneally injected into mouse 3 hours prior to euthanasia. DNA synthesis was assessed by BrdU labeling with anti-BrdU antibodies.
To perform full-thickness skin excision, 8- to 10-week-old C57L/B6 mice were respectively anesthetized by an intraperitoneal injection of a mixture of zoletil (6 mg/kg) and xylazine (3 mg/kg). Two full-thickness skin excisional wounds, 4 mm in diameter were made on either side of the dorsal midline using Sklar Tru-Punch disposable biopsy punch (Sklar, West Chester, Pa., USA). In each treatment group (n=6), the skin wound was treated with 25 μl skin ointment (containing 50 μM synthetic peptide and 0.006 μl DMSO vehicle) once daily after the skin scraping. In the control group (n=6), skin wound was treated with 25 μl of skin ointment with equal concentration of DMSO. Each gram of the above skin ointment contains 5 mg neomycin sulfate and 12.5 mg Bacitracin Zinc. Wounds were left uncovered and harvested 4 and 7 days after injury. Mice were housed individually during the healing period.
To investigate whether skin resurfacing process, which involves cell replication, is accelerated by 29-mer, Mo 29-mer, 20-mer, or Mo 20-mer, wounds were treated with skin ointment containing 29-mer, Mo 29-mer, 20-mer, or Mo 20-mer for 4 days, and then mice were intraperitoneally injected with BrdU for further 3 hours before euthanized. […] This observation was consistent with the thicker HE tissue treated with 29-mer or 20-mer.

| Sequence | BrdU-positive cells at basal layer of HE tissue, labeling index |
| --- | --- |
| SLGAEHRTESVIHRALYYDLITNPDIHST [Mo 29-mer, synthetic peptide derived from mouse PEDF] | 52.5±2.5% |
| SLGAEHRTESVIHRALYYDL [Mo 20-mer, synthetic peptide derived from mouse PEDF] | 49.2±4.3% |
| SLGAEQRTESIIHRALYYDLISSPDIHGT [29-mer, short synthetic PEDF peptide derived from the 39-mer] | 47.9±5.0% |
| SLGAEQRTESIIHRALYYDL [20-mer, synthetic peptide identical to residues 11-30 of the 39-mer] | 53.1±6.5% |

The sequences below were run on corneal wound (assay: Corneal wound healing in mice, fluorescein staining). Settings: 20 μl eye ointment with 50 μM peptide once a day; 2 mm wound.
Format: in vivo, C57BL/6 mice
Procedure: The experiments were performed using eight-week-old female C57BL/6 mice, and the procedures were approved by the Mackay Memorial Hospital Review Board for animal investigation. Animals were anesthetized by an intraperitoneal injection of a mixture of zoletil (6 mg/kg) and xylazine (3 mg/kg). One filter paper (0.9 mm diameter) soaked with 20% ethanol was placed on the central cornea of right eye for one minute and then irrigated extensively with PBS. Subsequently, mechanical epithelial scrape was performed using a punch under a dissection microscope to create a circular injury (2 mm diameter) at the entire corneal region of the mouse eye without encroaching the corneal stroma, limbus or conjunctiva.
Each synthetic peptide (the 39-mer, 34-mer, 29-mer, 25-mer, 20-mer, 18-mer, Mo 29-mer or Mo 20-mer) was reconstituted in DMSO as stock (5 mM) and mixed with TOBREX® eye ointment (Alcon; containing 0.3% Tobramycin and 0.5% Chlorobutanol) to a concentration 50 μM. In each of the treatment group (n=6-10), the right eye was treated with 20 μl eye ointment containing the synthetic peptide once a day after the scrape injury. In the control group (n=20), right eye was treated with 20 μl of eye ointment mixed with vehicle DMSO. Wound size was determined by staining with topical fluorescein (Fluor-I-Strip, Ayerst Laboratories, Philadelphia, Pa.) and photographed with a digital camera. The area of defect was quantified from the photographs using a computer-assisted image analyzer (Adobe Photoshop CS3 10.0) and was calculated as the percentage of residual epithelial defect at each time point/initial wound area.
To investigate the effect of PEDF-derived short peptides on corneal wound healing in mice, corneal wound was created by a circular punch (2 mm diameter), then control eye-ointment or eye-ointment containing the short synthetic PEDF peptide(s) of this invention was applied to the wounded eye, and wound healing was subsequently evaluated by fluorescein staining. No significant differences in the size of the initial abrasion were noted between synthetic PEDF peptide-treated and control mice.

| Sequence | corneal re-epithelialization after 48 hours |
| --- | --- |
| SLGAEHRTESVIHRALYYDLITNPDIHST [Mo 29-mer, synthetic peptide derived from mouse PEDF] | complete corneal re-epithelialization |
| SLGAEHRTESVIHRALYYDL [Mo 20-mer, synthetic peptide derived from mouse PEDF] | complete corneal re-epithelialization |
| EQRTESIIHRALYYDLIS [18-mer] | incompletely healed wounds |
| SLGAEQRTESIIHRALYYDLISSPDIHGT [29-mer, short synthetic PEDF peptide derived from the 39-mer] | complete corneal re-epithelialization |
| SLGAEQRTESIIHRALYYDL [20-mer, synthetic peptide identical to residues 11-30 of the 39-mer] | complete corneal re-epithelialization |

Same assay, conditions: 24 hours; 50 μM peptide eye ointment once a day; control 84.9±5.1%

| Sequence | residual epithelial defect, percentage of the original wound |
| --- | --- |
| SLGAEHRTESVIHRALYYDLITNPDIHST [Mo 29-mer, synthetic peptide derived from mouse PEDF] | 33.8±5.2% |
| SLGAEHRTESVIHRALYYDL [Mo 20-mer, synthetic peptide derived from mouse PEDF] | 43.9±7.6% |
| SLGAEQRTESIIHRALYYDLISSPDIHGT [29-mer, short synthetic PEDF peptide derived from the 39-mer] | 36.5±6.4% |
| SLGAEQRTESIIHRALYYDL [20-mer, synthetic peptide identical to residues 11-30 of the 39-mer] | 42.2±4.3% |

Same assay, conditions: 48 hours; 50 μM peptide eye ointment once a day; control 39.5±3.1%

| Sequence | residual epithelial defect, percentage of the original wound |
| --- | --- |
| SLGAEHRTESVIHRALYYDLITNPDIHST [Mo 29-mer, synthetic peptide derived from mouse PEDF] | 4.6±2.3% |
| SLGAEHRTESVIHRALYYDL [Mo 20-mer, synthetic peptide derived from mouse PEDF] | 6.2±3.5% |
| SLGAEQRTESIIHRALYYDLISSPDIHGT [29-mer, short synthetic PEDF peptide derived from the 39-mer] | 3.7±2.9% |
| SLGAEQRTESIIHRALYYDL [20-mer, synthetic peptide identical to residues 11-30 of the 39-mer] | 5.0±3.7% |
